From PubChem BioAssay AID1845215 (Molecular Pharmacology Branch, DTP, NCI, 2023)
pIC50: −log10 of the molar value.

System: SW 1271 complex tumor spheroid viability
Experiment: Anticancer human tumor SW 1271 cell line growth inhibition;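 further: spheroids exposed to agents for seven days before readout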;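 on viability, T/C: percent of DMSO vehicle control luminescence so 100% = vehicle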
Conditions: for pIC50: curve of first compound; for viability, T/C: stronger effect = lower value
In short: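 Single agents and combinations were tested on spheroids built from tumor cells plus HUVEC and hMSC, at half-log dilutions starting at or near clinical Cmax, else 10 microM; final DMSO 0.25% (v/v).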

Question: `CC(C)n1c(=O)n(C)c2cnc3cc(F)c(-c4ccc(OCCCN5CCCCC5)nc4)cc3c21` + Cn1nnc2c(C(N)=O)ncn2c1=O was tested. Which pIC50 (second compound 1 µM) did it give?
Answer: The pIC50 was < 5.00.

Question: And the pIC50 (second compound 3.16 µM)?
Answer: Its pIC50 is < 5.00.

Question: And the pIC50 (second compound 10 µM)?
Answer: The pIC50 was 5.13.

Question: What about the pIC50 (second compound 31.6 µM) of the same molecule?
Answer: The pIC50 was 5.31.

Question: What about the pIC50 (second compound 100 µM) of the same molecule?
Answer: Its pIC50 is 5.98.

Question: And the viability, T/C (second compound 1 µM, first compound 0.0316 µM)?
Answer: Its viability, T/C is 99.6%.

Question: What about the viability, T/C (second compound 1 µM, first compound 0.1 µM) of the same molecule?
Answer: The viability, T/C was 90.9%.

Question: And the viability, T/C (second compound 1 µM, first compound 0.316 µM)?
Answer: The viability, T/C was 93.2%.

Question: What about the viability, T/C (second compound 1 µM, first compound 1 µM) of the same molecule?
Answer: The viability, T/C was 101%.

Question: And the viability, T/C (second compound 1 µM, first compound 3.16 µM)?
Answer: Its viability, T/C is 99.6%.

Question: What about the viability, T/C (second compound 1 µM, first compound 10 µM) of the same molecule?
Answer: Its viability, T/C is 54.7%.

Question: What about the viability, T/C (second compound 3.16 µM, first compound 0.0316 µM) of the same molecule?
Answer: Its viability, T/C is 101%.

Question: And the viability, T/C (second compound 3.16 µM, first compound 0.1 µM)?
Answer: The viability, T/C was 92.5%.

Question: What about the viability, T/C (second compound 3.16 µM, first compound 0.316 µM) of the same molecule?
Answer: Its viability, T/C is 98.8%.

Question: And the viability, T/C (second compound 3.16 µM, first compound 1 µM)?
Answer: The viability, T/C was 102%.

Question: What about the viability, T/C (second compound 3.16 µM, first compound 3.16 µM) of the same molecule?
Answer: Its viability, T/C is 88.4%.

Question: And the viability, T/C (second compound 3.16 µM, first compound 10 µM)?
Answer: The viability, T/C was 50.9%.

Question: And the viability, T/C (second compound 10 µM, first compound 0.0316 µM)?
Answer: Its viability, T/C is 87.1%.

Question: What about the viability, T/C (second compound 10 µM, first compound 0.1 µM) of the same molecule?
Answer: The viability, T/C was 97.7%.

Question: And the viability, T/C (second compound 10 µM, first compound 0.316 µM)?
Answer: The viability, T/C was 94.3%.

Question: And the viability, T/C (second compound 10 µM, first compound 1 µM)?
Answer: Its viability, T/C is 79.9%.

Question: What about the viability, T/C (second compound 10 µM, first compound 3.16 µM) of the same molecule?
Answer: The viability, T/C was 75.6%.

Question: And the viability, T/C (second compound 10 µM, first compound 10 µM)?
Answer: Its viability, T/C is 41.6%.

Question: What about the viability, T/C (second compound 31.6 µM, first compound 0.0316 µM) of the same molecule?
Answer: Its viability, T/C is 93%.

Question: What about the viability, T/C (second compound 31.6 µM, first compound 0.1 µM) of the same molecule?
Answer: Its viability, T/C is 84.5%.

Question: And the viability, T/C (second compound 31.6 µM, first compound 0.316 µM)?
Answer: The viability, T/C was 86.1%.

Question: And the viability, T/C (second compound 31.6 µM, first compound 1 µM)?
Answer: The viability, T/C was 76.8%.

Question: And the viability, T/C (second compound 31.6 µM, first compound 3.16 µM)?
Answer: The viability, T/C was 63.5%.

Question: And the viability, T/C (second compound 31.6 µM, first compound 10 µM)?
Answer: The viability, T/C was 29.5%.

Question: What about the viability, T/C (second compound 100 µM, first compound 0.0316 µM) of the same molecule?
Answer: Its viability, T/C is 70.5%.

Question: And the viability, T/C (second compound 100 µM, first compound 0.1 µM)?
Answer: The viability, T/C was 69.6%.

Question: What about the viability, T/C (second compound 100 µM, first compound 0.316 µM) of the same molecule?
Answer: Its viability, T/C is 64.2%.

Question: What about the viability, T/C (second compound 100 µM, first compound 1 µM) of the same molecule?
Answer: The viability, T/C was 51.5%.

Question: What about the viability, T/C (second compound 100 µM, first compound 3.16 µM) of the same molecule?
Answer: Its viability, T/C is 31%.

Question: What about the viability, T/C (second compound 100 µM, first compound 10 µM) of the same molecule?
Answer: Its viability, T/C is 24.9%.
